Measurements: patent US20260374750A1, “LIGANDS SPECIFICALLY TARGETING VESICULAR GLUTAMATE TRANSPORTERS FOR SUPER-RESOLUTION IMAGING” (SORBONNE UNIVERSITÉ, priority 2021, published 2026)

System: VGLUTs (GLU vesicular transport)
Assay: Vesicular glutamate reuptake test ([3H]-glutamate, synaptic vesicles)
Format: biochemical, rat
Conditions: for EC50: vesicular glutamate transport; for potency in words (EC50): based on EC50
Description: The EC50 was also determined for several of the compounds of the invention.
The vesicular glutamate reuptake was tested as previously described (Kish and Ueda, 1989; Naito and Ueda, 1985; Pietrancosta et al., 2010) with minor modifications. Aliquots of synaptic vesicles […] (obtained by differential centrifugation of rat cortex) were diluted in a solution containing 4 mM HEPES-KOH, pH 7.4 and 0.32M sucrose. The tested compounds were dissolved in 1% ethanol, 1% DMSO (pH was adjusted to 7.4 with 5% KOH) to initial concentrations comprised between 2 mM and 200 μM. The compounds were then diluted to desired final concentrations in a solution containing 10 mM HEPES-KOH, pH 7.4, 0.32 M sucrose, 4 mM KCl, 4 mM MgSO4 (named TPU). The tested compounds were pre-incubated in a solution containing 3 mM ATP-Mg, 1 mM L-aspartic acid, 100 μM glutamate and 0.4 mM […] and 0.4 μM [3H]-Glutamate (1.547 TBq/mmol). After 4 min at 37 °C, the reuptake reaction was initiated by the addition of rat synaptic vesicles. This mixture was incubated for 10 min at 37 °C before adding ice-cold TPU (3.5 mL) and rapidly filtering it through a membrane filter ([…], Millipore MF reference HAWP02500) using a vacuum collector. The filters were washed five times with 3.5 mL of cold TPU and placed in scintillation vials with a scintillation cocktail (optiphase hisafe 3, reference 1200-437, Perkin Elmer). The radioactivity related to the filters was measured in a Beckman LS 6500 scintillation spectrophotometer. The values obtained in the absence of ATP-Mg or in the presence of Carbonyl [COMPOUND LEFT OUT] 3-chlorophenylhydrazone (CCCP, 50 μM reference Sigma C2759) were used to determine the non-specific activity.

COc1cc2oc(=O)c(C(=O)O)cc2cc1C#Cc1ccc(-c2ccc(N)cc2)cc1 [LSP17-1127, 6-((4′-amino-[1,1′-biphenyl]-4-yl)ethynyl)-7-methoxy-2-oxo-2H-chromene-3-carboxylic Acid]
% inhibition of GLU vesicular transport at 20 μM (coumarin-derived compounds): 40%

O=C(O)c1cc2cc(C#Cc3ccccc3)c(O)cc2oc1=O [LSP17-1177, 7-hydroxy-2-oxo-6-(phenylethynyl)-2H-chromene-3-carboxylic Acid]
% inhibition of GLU vesicular transport at 20 μM (coumarin-derived compounds): 20%
EC50 (coumarin-derived compounds): 267 µM

O=C(O)c1cc2cc(/N=N/c3ccc(Br)cc3)ccc2oc1=O [LSP9-3160, (E)-6-((4-bromophenyl)diazenyl)-2-oxo-2H-chromene-3-carboxylic Acid]
% inhibition of GLU vesicular transport at 20 μM (coumarin-derived compounds): 14%

O=C(O)c1cc2cc(/N=N/c3ccccc3)ccc2oc1=O [LSP9-4126, (E)-2-oxo-6-(phenyldiazenyl)-2H-chromene-3-carboxylic Acid]
% inhibition of GLU vesicular transport at 20 μM (coumarin-derived compounds): 5%

COc1cc2oc(=O)c(C(=O)O)cc2cc1-n1cc(-c2ccccc2)nn1 [LSP17-1116, 7-methoxy-2-oxo-6-(4-phenyl-1H-1,2,3-triazol-1-yl)-2H-chromene-3-carboxylic Acid]
% inhibition of GLU vesicular transport at 20 μM (coumarin-derived compounds): 45%
EC50 (coumarin-derived compounds): 25 µM

COc1cc2oc(=O)c(C(=O)O)cc2cc1/C=C/c1ccccc1 [LSP16-2077, (E)-7-methoxy-2-oxo-6-styryl-2H-chromene-3-carboxylic acid]
% inhibition of GLU vesicular transport at 20 μM (coumarin-derived compounds): 30%

COc1cc2oc(=O)c(C(=O)O)cc2cc1/N=N/c1ccccc1 [LSP9-4108, (E)-7-methoxy-2-oxo-6-(phenyldiazenyl)-2H-chromene-3-carboxylic Acid]
% inhibition of GLU vesicular transport at 20 μM (coumarin-derived compounds): 30%
EC50 (coumarin-derived compounds): 50 µM

COc1cc(Br)ccc1/N=N/c1cc(OC)c2oc(=O)c(C(=O)O)cc2c1 [LSP9-3163]
% inhibition of GLU vesicular transport at 20 μM (coumarin-derived compounds): 9%

O=C(O)c1cc2cc(-n3cc(-c4ccccc4)nn3)ccc2oc1=O [LSP17-1100, 2-oxo-6-(4-phenyl-1H-1,2,3-triazol-1-yl)-2H-chromene-3-carboxylic Acid]
% inhibition of GLU vesicular transport at 20 μM (coumarin-derived compounds): 48%
EC50 (coumarin-derived compounds): 23 µM

O=C(O)c1cc2cc(/C=C/c3ccccc3)ccc2oc1=O [LSP16-2074, (E)-2-oxo-6-styryl-2H-chromene-3-carboxylic Acid]
% inhibition of GLU vesicular transport at 20 μM (coumarin-derived compounds): 30%

CCN(CC)c1cc2oc(=O)c(C(=O)O)cc2cc1C#Cc1ccc(-c2ccc(N)cc2)cc1 [LSP17-1126, 6-((4′-amino-[1,1′-biphenyl]-4-yl)ethynyl)-7-(diethylamino)-2-oxo-2H-chromene-3-carboxylic Acid]
% inhibition of GLU vesicular transport at 20 μM (coumarin-derived compounds): 100%
potency in words (EC50): effective at a very low concentration
EC50 (coumarin-derived compounds): 5 µM

O=C(O)c1cc2cc(C#Cc3ccccc3)ccc2oc1=O [LSP17-1044, 2-oxo-6-(phenylethynyl)-2H-chromene-3-carboxylic Acid]
% inhibition of GLU vesicular transport at 20 μM (coumarin-derived compounds): 30%

Nc1ccc(-c2ccc(C#Cc3ccc4oc(=O)c(C(=O)O)cc4c3)cc2)cc1 [LSP17-1125, 6-((4′-amino-[1,1′-biphenyl]-4-yl)ethynyl)-2-oxo-2H-chromene-3-carboxylic Acid]
% inhibition of GLU vesicular transport at 20 μM (coumarin-derived compounds): 100%
potency in words (EC50): effective at a very low concentration
EC50 (coumarin-derived compounds): 5 µM

COc1cc(Br)ccc1/N=N/c1cc2cc(C(=O)O)c(=O)oc2cc1OC [LSP9-4150]
% inhibition of GLU vesicular transport at 20 μM (coumarin-derived compounds): 15%

O=C(O)c1cc2cc(/N=N/c3ccccc3)c(O)cc2oc1=O [LSP9-4153, (E)-7-hydroxy-2-oxo-6-(phenyldiazenyl)-2H-chromene-3-carboxylic Acid]
% inhibition of GLU vesicular transport at 20 μM (coumarin-derived compounds): 12%

CCN(CC)c1cc2oc(=O)c(C(=O)O)cc2cc1-n1cc(-c2ccccc2)nn1 [LSP17-1153, 7-(diethylamino)-2-oxo-6-(4-phenyl-1H-1,2,3-triazol-1-yl)-2H-chromene-3-carboxylic Acid]
% inhibition of GLU vesicular transport at 20 μM (coumarin-derived compounds): 62%
EC50 (coumarin-derived compounds): 15 µM

COc1cc2oc(=O)c(C(=O)O)cc2cc1/N=N/c1ccc(-c2ccc(N)cc2)cc1 [LSP9-4089, (E)-6-((4′-aminobiphenyl-4-yl)diazenyl)-7-methoxy-2-oxo-2H-chromene-3-carboxylic Acid]
% inhibition of GLU vesicular transport at 20 μM (coumarin-derived compounds): 35%

COc1cc2oc(=O)c(C(=O)O)cc2cc1/N=N/c1ccc(Br)cc1 [LSP9-3164]
% inhibition of GLU vesicular transport at 20 μM (coumarin-derived compounds): 40%
EC50 (coumarin-derived compounds): 30 µM

O=C(O)c1cc2cc(/N=N/c3ccc(Br)cc3)c(O)cc2oc1=O [LSP9-5096, (E)-6-((4-bromophenyl)diazenyl)-7-hydroxy-2-oxo-2H-chromene-3-carboxylic Acid]
% inhibition of GLU vesicular transport at 20 μM (coumarin-derived compounds): 10%

COc1cc2oc(=O)c(C(=O)O)cc2cc1C#Cc1ccccc1 [LSP17-1046, 7-methoxy-2-oxo-6-(phenylethynyl)-2H-chromene-3-carboxylic Acid]
% inhibition of GLU vesicular transport at 20 μM (coumarin-derived compounds): 48%
EC50 (coumarin-derived compounds): 21 µM

CCN(CC)c1cc2oc(=O)c(C(=O)O)cc2cc1-n1cc(-c2ccc(-c3ccc(N)cc3)cc2)nn1 [LSP17-1154, 6-(4-(4′-amino-[1,1′-biphenyl]-4-yl)-1H-1,2,3-triazol-1-yl)-7-(diethylamino)-2-oxo-2H-chromene-3-carboxylic Acid]
% inhibition of GLU vesicular transport at 20 μM (coumarin-derived compounds): 50%
EC50 (coumarin-derived compounds): 20 µM

O=C(O)c1cc(C(=O)O)c2cc(/C=C/c3ccc(-c4ccc(/C=C/c5ccc6nc(C(=O)O)cc(C(=O)O)c6c5)cc4)cc3)ccc2n1 [LSP13-1173-YL173, 6,6′-2,2′-(biphenyl-4,4′-diyl)bis(ethene-2,1-diyl)diquinoline-2,4-dicarboxylic Acid]
% inhibition of GLU vesicular transport at 20 μM (quinoline-derived compounds): 72%
EC50 (quinoline-derived compounds): 15 µM

CCN(CC)c1cc2oc(=O)c(C(=O)O)cc2cc1C#Cc1ccccc1 [LSP17-1042, 7-(diethylamino)-2-oxo-6-(phenylethynyl)-2H-chromene-3-carboxylic Acid]
% inhibition of GLU vesicular transport at 20 μM (coumarin-derived compounds): 12%

O=C(O)c1cc(C(=O)O)c2cc(-c3ccc(-c4ccc(-c5ccc6nc(C(=O)O)cc(C(=O)O)c6c5)cc4)cc3)ccc2n1 [LSP13-1160-YL160, 6,6′-(Biphenyl-4,4′-diyl)diquinoline-2,4-dicarboxylic Acid]
% inhibition of GLU vesicular transport at 20 μM (quinoline-derived compounds): 100%
EC50 (quinoline-derived compounds): 3.6 µM

COc1cc(/N=N/c2ccc(Br)cc2)cc2cc(C(=O)O)c(=O)oc12 [LSP9-3162]
% inhibition of GLU vesicular transport at 20 μM (coumarin-derived compounds): 42%

CCOC(=O)c1cc(C(=O)OCC)c2cc(-c3ccc(-c4ccc(-c5ccc6nc(C(=O)OCC)cc(C(=O)OCC)c6c5)cc4)cc3)ccc2n1 [LSP13-1153-YL153, Tetraethyl 6,6′-(biphenyl-4,4′-diyl)diquinoline-2,4-dicarboxylate]
% inhibition of GLU vesicular transport at 20 μM (quinoline-derived compounds): 69%
EC50 (quinoline-derived compounds): 12.3 µM
